PubChem BioAssay AID2060488 (Molecular Pharmacology Branch, DTP, NCI, 2025)

Tested on: 966289-007-R4-J1-PDC complex spheroid viability
Experiment: Anticancer human tumor 966289-007-R4-J1-PDC patient-derived pancreatic adenocarcinoma cell line growth inhibition [GQUAD]
Conditions: for IC50: curve of first compound; for viability, T/C: stronger effect = lower value; active = viability on the fitted dose curve at most 10% of control; inactive = the rest
Outline: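 Tumor cells were grown as complex spheroids with HUVEC endothelial cells and mesenchymal stem cells as stroma. G-quadruplex stabilizers were combined with targeted agents over half-log dilutions from near the clinical Cmax, or from 10 microM.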

[1] = second compound 0.0316 µM, first compound 0.0316 µM
[2] = second compound 0.0316 µM, first compound 0.1 µM
[3] = second compound 0.0316 µM, first compound 0.316 µM
[4] = second compound 0.0316 µM, first compound 1 µM
[5] = second compound 0.0316 µM, first compound 3.16 µM
[6] = second compound 0.0316 µM, first compound 10 µM
[7] = second compound 0.1 µM, first compound 0.0316 µM
[8] = second compound 0.1 µM, first compound 0.1 µM
[9] = second compound 0.1 µM, first compound 0.316 µM
[10] = second compound 0.1 µM, first compound 1 µM
[11] = second compound 0.1 µM, first compound 3.16 µM
[12] = second compound 0.1 µM, first compound 10 µM
[13] = second compound 0.316 µM, first compound 0.0316 µM
[14] = second compound 0.316 µM, first compound 0.1 µM
[15] = second compound 0.316 µM, first compound 0.316 µM
[16] = second compound 0.316 µM, first compound 1 µM
[17] = second compound 0.316 µM, first compound 3.16 µM
[18] = second compound 0.316 µM, first compound 10 µM
[19] = second compound 1 µM, first compound 0.0316 µM
[20] = second compound 1 µM, first compound 0.1 µM
[21] = second compound 1 µM, first compound 0.316 µM
[22] = second compound 1 µM, first compound 1 µM
[23] = second compound 1 µM, first compound 3.16 µM
[24] = second compound 1 µM, first compound 10 µM
[25] = second compound 3.16 µM, first compound 0.0316 µM
[26] = second compound 3.16 µM, first compound 0.1 µM
[27] = second compound 3.16 µM, first compound 0.316 µM
[28] = second compound 3.16 µM, first compound 1 µM
[29] = second compound 3.16 µM, first compound 3.16 µM
[30] = second compound 3.16 µM, first compound 10 µM
[31] = second compound 10 µM, first compound 0.0316 µM
[32] = second compound 10 µM, first compound 0.1 µM
[33] = second compound 10 µM, first compound 0.316 µM
[34] = second compound 10 µM, first compound 1 µM
[35] = second compound 10 µM, first compound 3.16 µM
[36] = second compound 10 µM, first compound 10 µM
[37] = second compound 0.0316 µM, first compound 0.000999 µM
[38] = second compound 0.0316 µM, first compound 0.00316 µM
[39] = second compound 0.0316 µM, first compound 0.00999 µM
[40] = second compound 0.0316 µM, first compound 0.0999 µM
[41] = second compound 0.1 µM, first compound 0.000999 µM
[42] = second compound 0.1 µM, first compound 0.00316 µM
[43] = second compound 0.1 µM, first compound 0.00999 µM
[44] = second compound 0.1 µM, first compound 0.0999 µM
[45] = second compound 0.316 µM, first compound 0.000999 µM
[46] = second compound 0.316 µM, first compound 0.00316 µM
[47] = second compound 0.316 µM, first compound 0.00999 µM
[48] = second compound 0.316 µM, first compound 0.0999 µM
[49] = second compound 1 µM, first compound 0.000999 µM
[50] = second compound 1 µM, first compound 0.00316 µM
[51] = second compound 1 µM, first compound 0.00999 µM
[52] = second compound 1 µM, first compound 0.0999 µM
[53] = second compound 3.16 µM, first compound 0.000999 µM
[54] = second compound 3.16 µM, first compound 0.00316 µM
[55] = second compound 3.16 µM, first compound 0.00999 µM
[56] = second compound 3.16 µM, first compound 0.0999 µM
[57] = second compound 10 µM, first compound 0.000999 µM
[58] = second compound 10 µM, first compound 0.00316 µM
[59] = second compound 10 µM, first compound 0.00999 µM
[60] = second compound 10 µM, first compound 0.0999 µM
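Also: spheroids exposed to the agents for seven days before readout.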
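For viability, T/C in this document: percent viability relative to DMSO vehicle control wells taken as 100%.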

CC(C)n1c(=O)n(C)c2cnc3cc(F)c(-c4ccc(OCCCN5CCCCC5)nc4)cc3c21 + Cc1cnc(CNC(=O)c2c(=O)c3ccc(N4CCCN(C)CC4)nc3n3c2sc2ccccc23)cn1
inactive: viability, T/C [1] 36.8% | viability, T/C [2] 18.8% | viability, T/C [3] 21.1% | viability, T/C [4] 15.4% | viability, T/C [5] 33.4% | viability, T/C [6] 31.6% | viability, T/C [7] 10.5% | viability, T/C [8] 7.68% | viability, T/C [9] 8.96% | viability, T/C [10] 9.72% | viability, T/C [11] 12.6% | viability, T/C [12] 17.9%
active: viability, T/C [13] 6.19% | viability, T/C [14] 6.34% | viability, T/C [15] 5.97% | viability, T/C [16] 6.08% | viability, T/C [17] 7.07% | viability, T/C [18] 8.93% | viability, T/C [19] 3.82% | viability, T/C [20] 4.77% | viability, T/C [21] 3.79% | viability, T/C [22] 4.54% | viability, T/C [23] 5.48% | viability, T/C [24] 5.76% | viability, T/C [25] 1.67% | viability, T/C [26] 2.31% | viability, T/C [27] 1.96% | viability, T/C [28] 2.66% | viability, T/C [29] 3.94% | viability, T/C [30] 3% | viability, T/C [31] 0.09% | viability, T/C [32] 0.12% | viability, T/C [33] 0.27% | viability, T/C [34] 0.16% | viability, T/C [35] 0.16% | viability, T/C [36] 0.15%
< 0.0316 µM: IC50 (second compound 0.0316 µM) | IC50 (second compound 0.1 µM) | IC50 (second compound 0.316 µM) | IC50 (second compound 1 µM) | IC50 (second compound 3.16 µM) | IC50 (second compound 10 µM)

CCc1c2c(nc3ccc(O)cc13)-c1cc3c(c(=O)n1C2)COC(=O)[C@]3(O)CC + Cc1cnc(CNC(=O)c2c(=O)c3ccc(N4CCCN(C)CC4)nc3n3c2sc2ccccc23)cn1
active: viability, T/C [37] 5.02% | viability, T/C [38] 0.7% | viability, T/C [39] 0.49% | viability, T/C [1] 0.4% | viability, T/C [40] 0.35% | viability, T/C [3] 0.36% | viability, T/C [41] 2.67% | viability, T/C [42] 0.71% | viability, T/C [43] 1.06% | viability, T/C [7] 0.42% | viability, T/C [44] 0.35% | viability, T/C [9] 0.46% | viability, T/C [45] 2.26% | viability, T/C [46] 0.87% | viability, T/C [47] 0.52% | viability, T/C [13] 0.5% | viability, T/C [48] 0.79% | viability, T/C [15] 0.41% | viability, T/C [49] 1.23% | viability, T/C [50] 0.79% | viability, T/C [51] 0.82% | viability, T/C [19] 0.08% | viability, T/C [52] 0.63% | viability, T/C [21] 0.12% | viability, T/C [53] 0.43% | viability, T/C [54] 0.09% | viability, T/C [55] 0.06% | viability, T/C [25] 0.05% | viability, T/C [56] 0.12% | viability, T/C [27] 0.09% | viability, T/C [57] 0.03% | viability, T/C [58] 0.07% | viability, T/C [59] 0.08% | viability, T/C [31] 0.07% | viability, T/C [60] 1.27% | viability, T/C [33] 0.1%
< 0.000999 µM: IC50 (second compound 0.0316 µM) | IC50 (second compound 0.1 µM) | IC50 (second compound 0.316 µM) | IC50 (second compound 1 µM) | IC50 (second compound 3.16 µM) | IC50 (second compound 10 µM)

Cc1cccc(N(C)C(=O)C2C(O)CCN2c2nc(C)cc(C(F)(F)F)c2C#N)c1 (stereo not drawn) + Cc1cnc(CNC(=O)c2c(=O)c3ccc(N4CCCN(C)CC4)nc3n3c2sc2ccccc23)cn1
active: viability, T/C [19] 6.47% | viability, T/C [20] 6.97% | viability, T/C [21] 7.01% | viability, T/C [22] 6.54% | viability, T/C [23] 6.3% | viability, T/C [24] 7.05% | viability, T/C [25] 5.3% | viability, T/C [26] 4.93% | viability, T/C [27] 4.77% | viability, T/C [28] 5.55% | viability, T/C [29] 5.79% | viability, T/C [30] 5.35% | viability, T/C [31] 0.13% | viability, T/C [32] 0.18% | viability, T/C [33] 0.17% | viability, T/C [34] 0.17% | viability, T/C [35] 0.51% | viability, T/C [36] 0.38%
> 10 µM: IC50 (second compound 0.0316 µM)
< 0.0316 µM: IC50 (second compound 0.1 µM) | IC50 (second compound 0.316 µM) | IC50 (second compound 1 µM) | IC50 (second compound 3.16 µM) | IC50 (second compound 10 µM)
inactive: viability, T/C [1] 111% | viability, T/C [2] 102% | viability, T/C [3] 103% | viability, T/C [4] 102% | viability, T/C [5] 110% | viability, T/C [6] 106% | viability, T/C [7] 40.1% | viability, T/C [8] 30.9% | viability, T/C [9] 36.3% | viability, T/C [10] 34.9% | viability, T/C [11] 36.2% | viability, T/C [12] 40.1% | viability, T/C [13] 12.1% | viability, T/C [14] 11.4% | viability, T/C [15] 10.2% | viability, T/C [16] 13.8% | viability, T/C [17] 12.7% | viability, T/C [18] 13.3%

Cn1ncnc1[C@H]1c2n[nH]c(=O)c3cc(F)cc(c23)N[C@@H]1c1ccc(F)cc1 + Cc1cnc(CNC(=O)c2c(=O)c3ccc(N4CCCN(C)CC4)nc3n3c2sc2ccccc23)cn1
inactive: viability, T/C [37] 110% | viability, T/C [38] 98.6% | viability, T/C [39] 85.6% | viability, T/C [1] 25.9% | viability, T/C [40] 12.9% | viability, T/C [41] 42.7% | viability, T/C [42] 25.4% | viability, T/C [43] 17.3% | viability, T/C [7] 12.5% | viability, T/C [45] 13.8% | viability, T/C [46] 10%
active: viability, T/C [3] 7.23% | viability, T/C [44] 5.67% | viability, T/C [9] 3.67% | viability, T/C [47] 7.01% | viability, T/C [13] 6.26% | viability, T/C [48] 4.34% | viability, T/C [15] 2.5% | viability, T/C [49] 5.61% | viability, T/C [50] 5.81% | viability, T/C [51] 4.63% | viability, T/C [19] 3.57% | viability, T/C [52] 2.89% | viability, T/C [21] 1.85% | viability, T/C [53] 4.32% | viability, T/C [54] 4.8% | viability, T/C [55] 3.43% | viability, T/C [25] 2.17% | viability, T/C [56] 0.89% | viability, T/C [27] 0.51% | viability, T/C [57] 0.1% | viability, T/C [58] 0.15% | viability, T/C [59] 0.12% | viability, T/C [31] 0.13% | viability, T/C [60] 0.66% | viability, T/C [33] 0.13%
< 0.000999 µM: IC50 (second compound 0.1 µM) | IC50 (second compound 0.316 µM) | IC50 (second compound 1 µM) | IC50 (second compound 3.16 µM) | IC50 (second compound 10 µM)
0.0199 µM: IC50 (second compound 0.0316 µM)
